From patent publication US20220347171A1, “TREATMENT OF PRURIGO NODULARIS” (TREVI THERAPEUTICS, INC., priority 2016, published 2022)
Structures can show the parent of a compound that is named as a salt.

Tested on: prurigo nodularis patients
Assay: TR03ext (Example 3): Prurigo Activity Score (PAS) healed lesions; Stage 0 100% healed, Stage 1 75%-99%, Stage 2 50%-74%, Stage 3 25%-49%, Stage 4 0-24% healed
Type: in vivo, human
From the text: In some embodiments, after the treatment the patient experiences a substantial reduction of itch that is characterized by at least one category/stage improvement in Prurigo Activity Score (PAS). In particular embodiments, after the treatment the patient experiences a reduction of itch that results in at least one category/stage improvement in Prurigo Activity Score (PAS) domains of number of prurigo lesions, prurigo lesions with excoriations/crusts and/or healed prurigo lesions. The PAS consists of 7 qualitative and quantitative measurements related to the examination of the skin. Type, number, distribution, affected body parts, and quantitative number of lesions in a representative body part are documented. The biggest lesion and the most representative lesion are monitored with documentation of height and area measurements. Prurigo lesion activity is recorded as a percentages based on their stage (0-4). In some embodiments, number measurements of lesions on the body have four numerical categories: 0, 1-19, 20-100 and >100. In some embodiments, prurigo lesions with excoriations/crusts have five categories: Stage 4 (76%-100%), Stage 3 (51%-75%), Stage 2 (26%-50%), Stage 1 (1-25%) and Stage 0 (0%). In some embodiments, healed prurigo lesions have five categories: Stage 4 (0-24%), Stage 3 (25-49%), Stage 2 (50-74%), Stage 1 (75%-99%), Stage 0 (100%).
This clinical study was a Phase 2 Open Label Extension Study (clinical study TR03ext) of the randomized, double-blind, 3-parallel arm, placebo controlled dose ranging study described in Example 2. All those subjects who were randomized, and then completed Example 2 study, were eligible to participate in the Extension Study.
The primary endpoint was a description of the overall incidence and nature of Treatment-Emergent AEs (TEAES) during weeks 5-50 of the study. Exploratory efficacy endpoints included Change from Baseline patient reported outcome measures of Worst itch NRS, itchy VRS and ItchyQoL, by Treatment Period study visit and Baseline NRS score. There was also an assessment of any potential skin lesion changes over time using the metrics of the PAS.
Patients in Extension Study were titrated over a dose range of 30 mg QD to 180 mg BID based on tolerability. The selected dose range was based on Example 2 study whereby patients were titrated from a 30 mg QD dose either to 30 mg BID, 60 mg BID, 90 mg BID, 120 mg BID or a 180 mg BID dose. The highest dose proposed was 180 mg BID (360 mg daily dose), and was well below the highest recommended daily treatment of 160 mg IV (equivalent to 960 mg oral) for the current marketed parenteral administered product.
Tables 12, 13 and 14 display healed lesion PAS data for subjects who received treatment for at least 6 months, subjects who received treatment for at least 9 months and subjects who completed 50 weeks of treatment in the study, respectively. The status of the healed lesion activity is reported as percentages based on their stage (0-4) using a grading system: Stage 0 (100% healed); Stage 1 (75%-99% healed); Stage 2 (50%-74% healed); Stage 3 (25%-49% healed); Stage 4: 0-24% healed. Thus the higher the stage, the […] the prurigo skin pathology.

[1] = treatment for at least 6 months
[2] = treatment for at least 9 months

Oc1ccc2c3c1OC1[C@@H](O)CC[C@@]4(O)[C@@H](C2)N(CC2CCC2)CC[C@]314 (stereo partly drawn) [Nalbuphine, 17-(cyclobutylmethyl)-4,5α-epoxymorphinian-3, 6α, 14-triol, hydrochloride]
Subjects with at least one category improvement in the percentage of healed lesions (PAS) (after 6 months, 10/16): 62.5%
Subjects with at least one category improvement in the percentage of healed lesions (PAS) (after 9 months, 7/13): 53.8%
Subjects with at least one category improvement in the percentage of healed lesions (PAS) (after 12 months, 6/12): 50%
Healed lesion PAS Category Shift: Baseline Stage 0 to Last Observed Stage 0 (treatment for 50 weeks): 1 (7.7) Number (%) of Subjects
Healed lesion PAS Category Shift: Baseline Stage 0 to Last Observed Stage 1 (treatment for 50 weeks): 0 Number (%) of Subjects
Healed lesion PAS Category Shift: Baseline Stage 0 to Last Observed Stage 2 (treatment for 50 weeks): 0 Number (%) of Subjects
Healed lesion PAS Category Shift: Baseline Stage 0 to Last Observed Stage 3 (treatment for 50 weeks): 0 Number (%) of Subjects
Healed lesion PAS Category Shift: Baseline Stage 0 to Last Observed Stage 4 (treatment for 50 weeks): 0 Number (%) of Subjects
Healed lesion PAS Category Shift: Baseline Stage 1 to Last Observed Stage 0 (treatment for 50 weeks): 0 Number (%) of Subjects
Healed lesion PAS Category Shift: Baseline Stage 1 to Last Observed Stage 1 (treatment for 50 weeks): 2 (15.4) Number (%) of Subjects
Healed lesion PAS Category Shift: Baseline Stage 1 to Last Observed Stage 2 (treatment for 50 weeks): 1 (7.7) Number (%) of Subjects
Healed lesion PAS Category Shift: Baseline Stage 1 to Last Observed Stage 3 (treatment for 50 weeks): 0 Number (%) of Subjects
Healed lesion PAS Category Shift: Baseline Stage 1 to Last Observed Stage 4 (treatment for 50 weeks): 0 Number (%) of Subjects
Healed lesion PAS Category Shift: Baseline Stage 2 to Last Observed Stage 0 (treatment for 50 weeks): 0 Number (%) of Subjects
Healed lesion PAS Category Shift: Baseline Stage 2 to Last Observed Stage 1 (treatment for 50 weeks): 3 (23.1) Number (%) of Subjects
Healed lesion PAS Category Shift: Baseline Stage 2 to Last Observed Stage 2 (treatment for 50 weeks): 0 Number (%) of Subjects
Healed lesion PAS Category Shift: Baseline Stage 2 to Last Observed Stage 3 (treatment for 50 weeks): 0 Number (%) of Subjects
Healed lesion PAS Category Shift: Baseline Stage 2 to Last Observed Stage 4 (treatment for 50 weeks): 0 Number (%) of Subjects
Healed lesion PAS Category Shift: Baseline Stage 3 to Last Observed Stage 0 (treatment for 50 weeks): 0 Number (%) of Subjects
Healed lesion PAS Category Shift: Baseline Stage 3 to Last Observed Stage 1 (treatment for 50 weeks): 0 Number (%) of Subjects
Healed lesion PAS Category Shift: Baseline Stage 3 to Last Observed Stage 2 (treatment for 50 weeks): 0 Number (%) of Subjects
Healed lesion PAS Category Shift: Baseline Stage 3 to Last Observed Stage 3 (treatment for 50 weeks): 2 (15.4) Number (%) of Subjects
Healed lesion PAS Category Shift: Baseline Stage 3 to Last Observed Stage 4 (treatment for 50 weeks): 0 Number (%) of Subjects
Healed lesion PAS Category Shift: Baseline Stage 4 to Last Observed Stage 0 (treatment for 50 weeks): 1 (7.7) Number (%) of Subjects
Healed lesion PAS Category Shift: Baseline Stage 4 to Last Observed Stage 1 (treatment for 50 weeks): 0 (7.7) Number (%) of Subjects
Healed lesion PAS Category Shift: Baseline Stage 4 to Last Observed Stage 2 (treatment for 50 weeks): 1 (7.7) Number (%) of Subjects
Healed lesion PAS Category Shift: Baseline Stage 4 to Last Observed Stage 3 (treatment for 50 weeks): 1 (7.7) Number (%) of Subjects
Healed lesion PAS: Last Observed PAS Result Stage 0 (treatment for 50 weeks): 2 (15.4) Number (%) of Subjects
Healed lesion PAS: Last Observed PAS Result Stage 1 (treatment for 50 weeks): 6 (46.1) Number (%) of Subjects
Healed lesion PAS: Last Observed PAS Result Stage 2 (treatment for 50 weeks): 2 (15.4) Number (%) of Subjects
Healed lesion PAS: Last Observed PAS Result Stage 3 (treatment for 50 weeks): 3 (23.1) Number (%) of Subjects
Healed lesion PAS: Last Observed PAS Result Stage 4 (treatment for 50 weeks): 1 (7.7) Number (%) of Subjects
Healed lesion PAS Category Shift: Baseline Stage 0 to Last Observed Stage 0 [1]: 1 (5.9) Number (%) of Subjects
Healed lesion PAS Category Shift: Baseline Stage 0 to Last Observed Stage 1 [1]: 0 Number (%) of Subjects
Healed lesion PAS Category Shift: Baseline Stage 0 to Last Observed Stage 2 [1]: 0 Number (%) of Subjects
Healed lesion PAS Category Shift: Baseline Stage 0 to Last Observed Stage 3 [1]: 0 Number (%) of Subjects
Healed lesion PAS Category Shift: Baseline Stage 0 to Last Observed Stage 4 [1]: 0 Number (%) of Subjects
Healed lesion PAS Category Shift: Baseline Stage 1 to Last Observed Stage 0 [1]: 0 Number (%) of Subjects
Healed lesion PAS Category Shift: Baseline Stage 1 to Last Observed Stage 1 [1]: 2 (11.8) Number (%) of Subjects
Healed lesion PAS Category Shift: Baseline Stage 1 to Last Observed Stage 2 [1]: 1 (5.9) Number (%) of Subjects
Healed lesion PAS Category Shift: Baseline Stage 1 to Last Observed Stage 3 [1]: 0 Number (%) of Subjects
Healed lesion PAS Category Shift: Baseline Stage 1 to Last Observed Stage 4 [1]: 0 Number (%) of Subjects
Healed lesion PAS Category Shift: Baseline Stage 2 to Last Observed Stage 0 [1]: 1 (5.9) Number (%) of Subjects
Healed lesion PAS Category Shift: Baseline Stage 2 to Last Observed Stage 1 [1]: 3 (17.6) Number (%) of Subjects
Healed lesion PAS Category Shift: Baseline Stage 2 to Last Observed Stage 2 [1]: 0 Number (%) of Subjects
Healed lesion PAS Category Shift: Baseline Stage 2 to Last Observed Stage 3 [1]: 0 Number (%) of Subjects
Healed lesion PAS Category Shift: Baseline Stage 2 to Last Observed Stage 4 [1]: 0 Number (%) of Subjects
Healed lesion PAS Category Shift: Baseline Stage 3 to Last Observed Stage 0 [1]: 0 Number (%) of Subjects
Healed lesion PAS Category Shift: Baseline Stage 3 to Last Observed Stage 1 [1]: 1 (5.9) Number (%) of Subjects
Healed lesion PAS Category Shift: Baseline Stage 3 to Last Observed Stage 2 [1]: 0 Number (%) of Subjects
Healed lesion PAS Category Shift: Baseline Stage 3 to Last Observed Stage 3 [1]: 2 (11.8) Number (%) of Subjects
Healed lesion PAS Category Shift: Baseline Stage 3 to Last Observed Stage 4 [1]: 0 Number (%) of Subjects
Healed lesion PAS Category Shift: Baseline Stage 4 to Last Observed Stage 0 [1]: 1 (5.9) Number (%) of Subjects
Healed lesion PAS Category Shift: Baseline Stage 4 to Last Observed Stage 1 [1]: 2 (11.8) Number (%) of Subjects
Healed lesion PAS Category Shift: Baseline Stage 4 to Last Observed Stage 2 [1]: 1 (5.9) Number (%) of Subjects
Healed lesion PAS Category Shift: Baseline Stage 4 to Last Observed Stage 3 [1]: 1 (5.9) Number (%) of Subjects
Healed lesion PAS Category Shift: Baseline Stage 4 to Last Observed Stage 4 [1]: 1 (5.9) Number (%) of Subjects
Healed lesion PAS: Last Observed PAS Result Stage 0 [1]: 3 (17.6) Number (%) of Subjects
Healed lesion PAS: Last Observed PAS Result Stage 1 [1]: 9 (52.9) Number (%) of Subjects
Healed lesion PAS: Last Observed PAS Result Stage 2 [1]: 2 (11.8) Number (%) of Subjects
Healed lesion PAS: Last Observed PAS Result Stage 3 [1]: 3 (17.6) Number (%) of Subjects
Healed lesion PAS: Last Observed PAS Result Stage 4 [1]: 1 (5.9) Number (%) of Subjects
Healed lesion PAS Category Shift: Baseline Stage 0 to Last Observed Stage 0 [2]: 1 (7.1%) Number (%) of Subjects
Healed lesion PAS Category Shift: Baseline Stage 0 to Last Observed Stage 1 [2]: 0 Number (%) of Subjects
Healed lesion PAS Category Shift: Baseline Stage 0 to Last Observed Stage 2 [2]: 0 Number (%) of Subjects
Healed lesion PAS Category Shift: Baseline Stage 0 to Last Observed Stage 3 [2]: 0 Number (%) of Subjects
Healed lesion PAS Category Shift: Baseline Stage 0 to Last Observed Stage 4 [2]: 0 Number (%) of Subjects
Healed lesion PAS Category Shift: Baseline Stage 1 to Last Observed Stage 0 [2]: 0 Number (%) of Subjects
Healed lesion PAS Category Shift: Baseline Stage 1 to Last Observed Stage 1 [2]: 2 (14.3) Number (%) of Subjects
Healed lesion PAS Category Shift: Baseline Stage 1 to Last Observed Stage 2 [2]: 1 (7.1) Number (%) of Subjects
Healed lesion PAS Category Shift: Baseline Stage 1 to Last Observed Stage 3 [2]: 0 Number (%) of Subjects
Healed lesion PAS Category Shift: Baseline Stage 1 to Last Observed Stage 4 [2]: 0 Number (%) of Subjects
Healed lesion PAS Category Shift: Baseline Stage 2 to Last Observed Stage 0 [2]: 0 Number (%) of Subjects
Healed lesion PAS Category Shift: Baseline Stage 2 to Last Observed Stage 1 [2]: 3 (21.4) Number (%) of Subjects
Healed lesion PAS Category Shift: Baseline Stage 2 to Last Observed Stage 2 [2]: 0 Number (%) of Subjects
Healed lesion PAS Category Shift: Baseline Stage 2 to Last Observed Stage 3 [2]: 0 Number (%) of Subjects
Healed lesion PAS Category Shift: Baseline Stage 2 to Last Observed Stage 4 [2]: 0 Number (%) of Subjects
Healed lesion PAS Category Shift: Baseline Stage 3 to Last Observed Stage 0 [2]: 0 Number (%) of Subjects
Healed lesion PAS Category Shift: Baseline Stage 3 to Last Observed Stage 1 [2]: 0 Number (%) of Subjects
Healed lesion PAS Category Shift: Baseline Stage 3 to Last Observed Stage 2 [2]: 0 Number (%) of Subjects
Healed lesion PAS Category Shift: Baseline Stage 3 to Last Observed Stage 3 [2]: 2 (14.3) Number (%) of Subjects
Healed lesion PAS Category Shift: Baseline Stage 3 to Last Observed Stage 4 [2]: 0 Number (%) of Subjects
Healed lesion PAS Category Shift: Baseline Stage 4 to Last Observed Stage 0 [2]: 1 (7.1) Number (%) of Subjects
Healed lesion PAS Category Shift: Baseline Stage 4 to Last Observed Stage 1 [2]: 1 (7.1) Number (%) of Subjects
Healed lesion PAS Category Shift: Baseline Stage 4 to Last Observed Stage 2 [2]: 1 (7.1) Number (%) of Subjects
Healed lesion PAS Category Shift: Baseline Stage 4 to Last Observed Stage 3 [2]: 1 (7.1) Number (%) of Subjects
Healed lesion PAS Category Shift: Baseline Stage 4 to Last Observed Stage 4 [2]: 1 (7.1) Number (%) of Subjects
Healed lesion PAS: Last Observed PAS Result Stage 0 [2]: 2 (14.3) Number (%) of Subjects
Healed lesion PAS: Last Observed PAS Result Stage 1 [2]: 6 (42.9) Number (%) of Subjects
Healed lesion PAS: Last Observed PAS Result Stage 2 [2]: 2 (14.3) Number (%) of Subjects
Healed lesion PAS: Last Observed PAS Result Stage 3 [2]: 3 (21.4) Number (%) of Subjects
Healed lesion PAS: Last Observed PAS Result Stage 4 [2]: 1 (7.1) Number (%) of Subjects
